# Where a name gives a salt, the structure may show the parent alone.
# Columns and labels:
# [1] = biological target: Bcl-2 protein (histag-Bcl-2, UniProtKB P10415) (Homo sapiens (Human), UniProt P10415); assay: Inhibition of Bcl-2 by the fluorescence polarisation technique; assay type: binding; conditions: fluorescence polarisation test; incubation for 2 hours; read-out: IC50 (nM) Bcl-2 FP
# Text: For partial inhibitors, the percentage fluorescence polarisation inhibition for a given concentration of the test compound is indicated.
# [2] = system: RS4; 11 leukaemia cell line; assay: In vitro cytotoxicity, Microculture Tetrazolium Assay (MTT); assay type: cell-based; conditions: Homo sapiens, 11 cells exposed for 48 hours
# Protocol: The cytotoxicity studies were carried out on the RS4; 11 leukaemia cell line and on H146 small Cell Lung Carcinoma cell line. The cells are distributed onto microplates and exposed to the test compounds for 48 hours. The cell viability is then quantified by a colorimetric assay, the Microculture Tetrazolium Assay (Cancer Res., 1987, 47, 939-942).
# Chain of Bcl-2 protein (P10415 whole entry): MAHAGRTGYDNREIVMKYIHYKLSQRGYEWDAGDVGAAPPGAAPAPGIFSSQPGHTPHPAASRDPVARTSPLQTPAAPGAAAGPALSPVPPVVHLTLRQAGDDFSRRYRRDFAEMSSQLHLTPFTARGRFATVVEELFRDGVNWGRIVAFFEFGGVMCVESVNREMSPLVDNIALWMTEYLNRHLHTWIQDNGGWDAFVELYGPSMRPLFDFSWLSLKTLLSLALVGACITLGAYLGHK
SMILES,IC50 [1],IC50 [2]
"CCCCN(CCCC)C(=O)c1cc(-c2cc3c(cc2C(=O)N2Cc4ccccc4C[C@H]2CN2CCOCC2)CN(C(=O)Cc2ccccc2)CC3)n(C)c1C [Example 165, N,N-Dibutyl-1,2-dimethyl-5-{7-[(3S)-3-(morpholin-4-ylmethyl)-1,2,3,4-tetrahydroisoquinoline-2-carbonyl]-2-(2-phenylacetyl)-1,2,3,4-tetrahydroisoquinolin-6-yl}-1H-pyrrole-3-carboxamide]",18 nM,> 150 nM
"Cc1c(C(=O)N(C)c2ccc(O)cc2)cc(-c2cc3c(cc2C(=O)N2Cc4ccccc4C[C@H]2C)CN(C(=O)[C@H](N)c2ccccc2)C3)n1C [Example 174, 5-(2-[(2R)-2-Amino-2-phenylacetyl]-6-{[(3R)-3-methyl-3,4-dihydroisoquinolin-2(1H)-yl]carbonyl}-2,3-dihydro-1H-isoindol-5-yl)-N-(4-hydroxyphenyl)-N,1,2-trimethyl-1H-pyrrole-3-carboxamide]",5.9 nM,407 nM
"Cc1c(C(=O)N(C)c2ccc(O)cc2)cc(-c2cc3c(cc2C(=O)N2Cc4ccccc4C[C@H]2CN2CCOCC2)CN(C(=O)Oc2ccccc2)CC3)n1C [Example 88, Phenyl 6-{4-[(4-hydroxyphenyl)(methyl)carbamoyl]-1,5-dimethyl-1H-pyrrol-2-yl}-7-[(3S)-3-(morpholin-4-ylmethyl)-1,2,3,4-tetrahydroisoquinoline-2-carbonyl]-1,2,3,4-tetrahydroisoquinoline-2-carboxylate hydrochloride]",3.5 nM,3.9 nM
"CN(C(=O)c1cc(-c2cc3c(cc2C(=O)N2Cc4ccccc4C[C@H]2CN2CCOCC2)CN(C(=O)Oc2ccc(OC(F)(F)F)cc2)CC3)n2c1CCCC2)c1ccc(O)cc1 [Example 125, 4-(Trifluoromethoxy)phenyl 6-{1-[(4-hydroxyphenyl)(methyl)carbamoyl]-5,6,7,8-tetrahydroindolizin-3-yl}-7-[(3S)-3-(morpholin-4-ylmethyl)-1,2,3,4-tetrahydroisoquinoline-2-carbonyl]-1,2,3,4-tetrahydroisoquinoline-2-carboxylate]",8.7 nM,49 nM
"Cc1c(C(=O)N(C)c2ccc(O)cc2)cc(-c2cc3c(cc2C(=O)N2Cc4ccccc4C[C@H]2C)CN(C(=O)Oc2ccc(N(C)CCN(C)C)cc2)CC3)n1C [Example 474, 4-{[2-(Dimethylamino)ethyl](methyl)amino}phenyl 6-{4-[(4-hydroxyphenyl)(methyl)carbamoyl]-1,5-dimethyl-1H-pyrrol-2-yl}-7-[(3R)-3-methyl-1,2,3,4-tetrahydroisoquinoline-2-carbonyl]-1,2,3,4-tetrahydroisoquinoline-2-carboxylate]",4.5 nM,2.6 nM
"CN(C(=O)c1cc(-c2cc3c(cc2C(=O)N2Cc4ccccc4C[C@H]2CN2CCOCC2)CN(C(=O)Cc2ccccc2)CC3)n2c1CCCC2)c1ccc(O)cc1 [Example 70, N-(4-Hydroxyphenyl)-N-methyl-3-{7-[(3S)-3-(morpholin-4-ylmethyl)-1,2,3,4-tetrahydroisoquinoline-2-carbonyl]-2-(2-phenylacetyl)-1,2,3,4-tetrahydroisoquinolin-6-yl}-5,6,7,8-tetrahydroindolizine-1-carboxamide]",5.1 nM,9.8 nM
"Cc1c(C(=O)N(C)c2ccccc2)cc(-c2cc3c(cc2C(=O)N2Cc4ccccc4C[C@H]2CN2CCOCC2)CN(C(=O)Oc2ccccc2)CC3)n1C [Example 115, Phenyl 6-{1,5-dimethyl-4-[methyl(phenyl)carbamoyl]-1H-pyrrol-2-yl}-7-[(3S)-3-(morpholin-4-ylmethyl)-1,2,3,4-tetrahydroisoquinoline-2-carbonyl]-1,2,3,4-tetrahydroisoquinoline-2-carboxylate]",3.4 nM,24 nM
"Cc1c(C(=O)N(C)c2ccccc2)cc(-c2cc3c(cc2C(=O)N2Cc4ccccc4C[C@H]2CN2CCN(C)CC2)CN(C(=O)Oc2cccc(C(=O)O)c2)CC3)n1C [Example 735, 3-(6-{1,5-Dimethyl-4-[methyl(phenyl)carbamoyl]-1H-pyrrol-2-yl}-7-[(3S)-3-[(4-methylpiperazin-1-yl)methyl]-1,2,3,4-tetrahydroisoquinoline-2-carbonyl]-1,2,3,4-tetrahydroisoquinoline-2-carbonyloxy)benzoic acid]",12 nM,> 150 nM
"Cc1c(C(=O)N(C)c2ccc(O)cc2)cc(-c2cc3c(cc2C(=O)N2Cc4ccccc4C[C@H]2C)CN(C(=O)Cc2ccc4c(c2)OCO4)C3)n1C [Example 172, 5-{2-[2-(2H-1,3-Benzodioxol-5-yl)acetyl]-6-[(3R)-3-methyl-1,2,3,4-tetrahydroisoquinoline-2-carbonyl]-2,3-dihydro-1H-isoindol-5-yl}-N-(4-hydroxyphenyl)-N,1,2-trimethyl-1H-pyrrole-3-carboxamide]",3.4 nM,28 nM
"Cc1c(C(=O)N(C)c2ccc(O)cc2)cc(-c2cc3c(cc2C(=O)N2Cc4ccccc4C[C@H]2C)CN(C(=O)Oc2cccc(CCC(=O)N(C)C)c2)CC3)n1C [Example 776, 3-[2-(Dimethylcarbamoyl)ethyl]phenyl 6-{4-[(4-hydroxyphenyl)(methyl)carbamoyl]-1,5-dimethyl-1H-pyrrol-2-yl}-7-[(3R)-3-methyl-1,2,3,4-tetrahydroisoquinoline-2-carbonyl]-1,2,3,4-tetrahydroisoquinoline-2-carboxylate]",2.2 nM,1.1 nM

# Second part, led by results:
IC50 [1],SMILES,IC50 [2]
17 nM,"C[C@@H]1Cc2ccccc2CN1C(=O)c1cc2c(cc1-c1cc(C(=O)N(C)c3ccc(O)cc3)c3n1CCCC3)CN(C(=O)N(C)c1ccccc1)C2 [Example 82, 5-{1-[(4-Hydroxyphenyl)(methyl)carbamoyl]-5,6,7,8-tetrahydroindolizin-3-yl}-N-methyl-6-[(3R)-3-methyl-1,2,3,4-tetrahydroisoquinoline-2-carbonyl]-N-phenyl-2,3-dihydro-1H-isoindole-2-carboxamide]",> 150 nM
4.9 nM,"CCC(=O)N1CCc2cc(-c3cc(C(=O)N(C)c4ccc(O)cc4)c4n3CCCC4)c(C(=O)N3Cc4ccccc4C[C@H]3C)cc2C1 [Example 34, N-(4-Hydroxyphenyl)-N-methyl-3-{7-[(3R)-3-methyl-1,2,3,4-tetrahydroisoquinoline-2-carbonyl]-2-propanoyl-1,2,3,4-tetrahydroisoquinolin-6-yl}-5,6,7,8-tetrahydroindolizine-1-carboxamide]",19 nM
4.2 nM,"Cc1c(C(=O)N(C)c2ccc(O)cc2)cc(-c2cc3c(cc2C(=O)N2Cc4ccccc4C[C@H]2C)CN(C(=O)Cc2ccc(C#N)cc2)CC3)n1C [Example 145, 5-{2-[2-(4-Cyanophenyl)acetyl]-7-[(3R)-3-methyl-1,2,3,4-tetrahydroisoquinoline-2-carbonyl]-1,2,3,4-tetrahydroisoquinolin-6-yl}-N-(4-hydroxyphenyl)-N,1,2-trimethyl-1H-pyrrole-3-carboxamide]",5.5 nM
30 nM,"C[C@@H]1Cc2ccccc2CN1C(=O)c1cc2c(cc1-c1cc(C(=O)N(C)c3ccc(O)cc3)c3n1CCCC3)CN(C(=O)Cc1ccc(OC(F)(F)F)cc1)C2 [Example 26, N-(4-Hydroxyphenyl)-N-methyl-3-{6-[(3R)-3-methyl-1,2,3,4-tetrahydroisoquinoline-2-carbonyl]-2-{2-[4-(trifluoromethoxy)phenyl]acetyl}-2,3-dihydro-1H-isoindol-5-yl}-5,6,7,8-tetrahydroindolizine-1-carboxamide]",86 nM
65 nM,"CCN1CCc2cc(-c3cc(C(=O)N(C)c4ccc(O)cc4)c4n3CCCC4)c(C(=O)N3Cc4ccccc4C[C@H]3C)cc2C1 [Example 57, 3-{2-Ethyl-7-[(3R)-3-methyl-1,2,3,4-tetrahydroisoquinoline-2-carbonyl]-1,2,3,4-tetrahydroisoquinolin-6-yl}-N-(4-hydroxyphenyl)-N-methyl-5,6,7,8-tetrahydroindolizine-1-carboxamide]",1250 nM
21 nM,"C[C@@H]1Cc2ccccc2CN1C(=O)c1cc2c(cc1-c1cc(C(=O)N(C)c3ccc(O)cc3)c3n1CCCC3)CN(CCc1ccccc1)C2 [Example 72, N-(4-Hydroxyphenyl)-N-methyl-3-{6-[(3R)-3-methyl-1,2,3,4-tetrahydroisoquinoline-2-carbonyl]-2-(2-phenylethyl)-2,3-dihydro-1H-isoindol-5-yl}-5,6,7,8-tetrahydroindolizine-1-carboxamide]",229 nM
16 nM,"CNC(=O)N1Cc2cc(C(=O)N3Cc4ccccc4C[C@H]3C)c(-c3cc(C(=O)N(C)c4ccc(O)cc4)c4n3CCCC4)cc2C1 [Example 55, 5-{1-[(4-Hydroxyphenyl)(methyl)carbamoyl]-5,6,7,8-tetrahydroindolizin-3-yl}-N-methyl-6-[(3R)-3-methyl-1,2,3,4-tetrahydroisoquinoline-2-carbonyl]-2,3-dihydro-1H-isoindole-2-carboxamide]",372 nM
7.9 nM,"C[C@@H]1Cc2ccccc2CN1C(=O)c1cc2c(cc1-c1cc(C(=O)N(C)c3ccc(O)cc3)c3n1CCCC3)CN(C(=O)Cc1ccccc1)C2 [Example 14, N-(4-Hydroxyphenyl)-N-methyl-3-{6-[(3R)-3-methyl-1,2,3,4-tetrahydroisoquinoline-2-carbonyl]-2-(2-phenylacetyl)-2,3-dihydro-1H-isoindol-5-yl}-5,6,7,8-tetrahydroindolizine-1-carboxamide]",27 nM
5.7 nM,"Cc1ccc(OC(=O)N2Cc3cc(C(=O)N4Cc5ccccc5C[C@H]4C)c(-c4cc(C(=O)N(C)c5ccc(O)cc5)c5n4CCCC5)cc3C2)cc1 [Example 168, 4-Methylphenyl 5-{1-[(4-hydroxyphenyl)(methyl)carbamoyl]-5,6,7,8-tetrahydroindolizin-3-yl}-6-[(3R)-3-methyl-1,2,3,4-tetrahydroisoquinoline-2-carbonyl]-2,3-dihydro-1H-isoindole-2-carboxylate]",6.6 nM

# From patent publication US9809574B2, “Isoindoline or isoquinoline compounds, a process for their preparation and pharmaceutical compositions containing them” (LES LABORATOIRES SERVIER, priority 2013, dated 2017)
